Results reported in patent US9945845B2, “Methods of screening using amphibians” (priority 2009, dated 2018).
Where two headings read alike, the source gives them in different places.

System: Xenopus embryos
Conditions: for Lethality: — = no stage of lethality given; for Type of edema Ventral: ‡ = edemas also detected in the gut; for Onset (NF): onset of edema; for Type of edema Periocular: * = causing bulging eyes, # = bilateral, causing narrow-set eyes
Procedure: 10-μl aliquots of the chemicals were transferred from the mother plates with a liquid handling robot (Aquarius, Tecan) into 96-well tissue culture plates to generate diluted stock plates (2 mM in DMSO; 50 μl final volume). […] Once embryos reached stage 31 (37 hpf), 10-μl aliquots of the diluted chemicals were added to the wells. […] Negative control wells contained embryos in screening medium and 0.1×MMR only. Embryos were treated with the chemicals in a humidified incubator at 23° C. over a timeframe of 4 days. Embryos were manually scored for the presence of edema or other morphological phenotypes using a teaching dissecting microscope (SV6; Carl Zeiss). Two investigators performed separately the scoring daily at stages 39 (56 hpf), 41 (76 hpf), 45 (98 hpf), and 47 (120 hpf). Dead embryos were removed and 100 μl of water was added daily to each well to compensate for fluid evaporation. […] For imaging at the end of the experiments. Xenopus tadpoles were anesthetized with 0.05% tricaine (Sigma #A5040) in 0.1×MMR. Images were captured using a stereomicroscope (SteREO Lumar V12; Carl Zeiss) equipped with a digital camera (AxioCam Color; Carl Zeiss).
Xenopus late tailbud embryos at stage 31 (37 hpf) were selected for compound treatment. […] Embryos were arrayed into 48-well dishes (five per well) and treated with test compounds at a concentration of 20 μM in the presence of 1% DMSO. […] All 48-well dishes also contained replicates of negative controls (1% DMSO). Embryos were monitored daily over a period of four days for edema formation. In addition, drug-induced lethality and other externally visible phenotypes were scored. On average, 320 compounds were screened per week.

[1] = compounds causing lethality, 20 μM, 1% DMSO, treatment from stage 31, Nieuwkoop & Faber stage
[2] = compounds causing cytotoxicity, 20 μM, 1% DMSO, treatment from stage 31, Nieuwkoop & Faber stage
[3] = compounds causing edema, 20 μM, 1% DMSO, treatment from stage 31, scored to stage 47
[4] = 20 μM, 1% DMSO, treatment from stage 31, Nieuwkoop & Faber stage

SMILES: c1ccc2c(c1)[I+]c1ccccc1-2 [Diphenyleneiodonium chloride, [1,1′-Biphenyl]-2,2′-diyiodonium chloride]
- Lethality (NF) (Xenopus laevis, in vivo): 42 NF

SMILES: CCCCCCCCCCCCCCCCCCOCC(COP(=O)([O-])OCC[N+](C)(C)C)OC (stereo not drawn) [ET-18-OCH3, 3,5,9-Trioxa-4-phosphaheptacosan-1-aminium]
- Lethality (NF) [1]: 37/38

SMILES: O=c1c2ccccc2[se]n1-c1ccccc1 [Ebselen, 2-Phenyl-1,2-benzisoselenazol-3(2H)-one]
- Lethality (NF) [2]: 32 NF

SMILES: COC(=O)c1c(C)[nH]c(C)c1C(=O)c1ccccc1Cc1ccccc1 [FPL 64176, 2,5-Dimethyl-4-[2-(phenylmethyl)benzoyl]-1H-pyrrole-3-carboxylic acid methyl ester]
- Lethality (NF) [1]: 40 NF

SMILES: CC(C)=CCCC(C)=CCCC(C)=CCSc1ccccc1C(=O)O [Farnesylthiosalicylic acid]
- Lethality (NF) [2]: 32 NF

SMILES: O=C1NCN(c2ccccc2)C12CCN(CCCC(c1ccc(F)cc1)c1ccc(F)cc1)CC2 [Fluspirilene]
- Lethality (NF) [2]: 32 NF

SMILES: C=C[C@@]1(C)CC(=O)[C@]2(O)[C@@]3(C)[C@@H](O)CCC(C)(C)[C@@H]3[C@H](O)[C@H](OC(C)=O)[C@@]2(C)O1 [Forskolin]
- Lethality (NF) [3]: 41/42
- Type of edema Pericordial (embryonic stage): 39 embryonic stages according to Nieuwkoop and Faber (NF)
- Type of edema Proctodeal (embryonic stage): 39 embryonic stages according to Nieuwkoop and Faber (NF)
- Lethality (embryonic stage): 41/42
- Type of edema Ventral (embryonic stage): 39 embryonic stages according to Nieuwkoop and Faber (NF)
- Onset (NF) [4]: 39/40

SMILES: Cl.Cl.Fc1ccc(C(OCCN2CCN(CCCc3ccccc3)CC2)c2ccc(F)cc2)cc1 [GBR-12909 dihydrochloride, 1-[2-[bis(4-Fluorophenyl)methoxy]ethyl]-4-[3-phenylpropyl]piperazine dihydrochloride]
- Type of edema Pronephric (embryonic stage): 45 embryonic stages according to Nieuwkoop and Faber (NF)
- Type of edema Periocular (embryonic stage): 45 embryonic stages according to Nieuwkoop and Faber (NF)
- Type of edema Ventral (embryonic stage): 45 embryonic stages according to Nieuwkoop and Faber (NF)

SMILES: CC(C)(Sc1ccc(CCN(CCCCC2CCCCC2)C(=O)NC2CCCCC2)cc1)C(=O)O [GW7647]
- Lethality (NF) [2]: 32 NF

SMILES: O=C1Cc2c([nH]c3ccc(Br)cc23)-c2ccccc2N1 [Kenpaullone]
- Type of edema Periocular (embryonic stage): 45 embryonic stages according to Nieuwkoop and Faber (NF)
- Type of edema Ventral (embryonic stage): 45 embryonic stages according to Nieuwkoop and Faber (NF)

SMILES: Cc1c(CC(C)(C)C(=O)O)n(Cc2ccc(Cl)cc2)c2ccc(F)cc12 [L-655,240, 3-[1-(4-Chlorobenzyl)-5-fluoro-3-methyl-indol-2-yl]-2,2-dirriethyl propanoic acid]
- Lethality (NF) [2]: 32 NF

SMILES: COc1cc2nc(N3CCN(C(=O)OCc4ccccc4)[C@H](C(=O)NC(C)(C)C)C3)nc(N)c2cc1OC [L-765,314, (2S)-4-(4-Amino-6,7-dimethoxy-2-quinazolinyl)-2-[[(1,1-Dimethylethyl)amino]carbonyl]-1-piperazinecarboxylic acid, phenylmethyl ester]
- Type of edema Periocular (embryonic stage): 41/42 #
- Type of edema Ventral (embryonic stage): 45 embryonic stages according to Nieuwkoop and Faber (NF)
- Onset (NF) [4]: 41/42

SMILES: CCCCCCCCCCCCCCCCOC[C@H](COCC(F)(F)F)OP(=O)(O)OC.[Li] [MJ33, 1-Hexadecyl-3-(trifluoroethyl)-sn-glycero-2-phosphomethanol lithium]
- Lethality (NF) [2]: 32 NF

SMILES: Cc1ccc(Cl)c(Nc2ccccc2C(=O)O)c1Cl.[Na] [Meclofenamic acid sodium, 2-([2,6-Dichloro-3-methylphenyl]amino)benzoic acid sodium]
- Lethality (NF) [3]: 41/42
- Type of edema Pericordial (embryonic stage): 35/36
- Lethality (embryonic stage): 41/42
- Onset (NF) [4]: 35/36
